ChEMBL document CHEMBL4425146, “Synthesis and biological evaluation of N(9)-substituted harmine derivatives as potential anticancer agents” (Bioorg Med Chem Lett, 2016)

Legend:
Format in all cases: functional, cell-based
HeLa = experiment: Cytotoxicity against human HeLa cells assessed as inhibition of cell growth by MTT assay
SMMC-7721 = experiment: Cytotoxicity against human SMMC7721 cells assessed as inhibition of cell growth after 48 hrs by MTT assay; conditions: SMMC-7721, 48 h
A549 = experiment: Cytotoxicity against human A549 cells assessed as inhibition of cell growth after 48 hrs by MTT assay; conditions: A549, 48 h
SGC-7901 = experiment: Cytotoxicity against human SGC7901 cells assessed as inhibition of cell growth after 48 hrs by MTT assay; conditions: SGC-7901, 48 h
MCF7 = experiment: Cytotoxicity against human MCF7 cells assessed as inhibition of cell growth after 48 hrs by MTT assay; conditions: MCF7, 48 h

SMILES	IC50 (HeLa) [µM]	IC50 (SMMC-7721) [µM]	IC50 (A549) [µM]	IC50 (SGC-7901) [µM]	IC50 (MCF7) [µM]
COc1ccc2c3ccnc(C)c3n(CCCc3ccccc3)c2c1	24	–	–	–	–
COc1ccc2c3ccnc(C)c3n(CCCCBr)c2c1	–	8.34	12.2	10.6	0.85
CCCCCCn1c2cc(OC)ccc2c2ccnc(C)c21	–	14.4	4.89	13.3	> 50
COc1ccc2c3ccnc(C)c3n(CCCCCCBr)c2c1	–	3.79	0.87	6.94	0.45
COc1ccc2c3ccnc(C)c3n(Cc3cc(F)cc(F)c3)c2c1	–	> 50	18.4	6.47	> 50
CCn1c2cc(OC)ccc2c2ccnc(C)c21	–	24	26.4	29.6	> 50
COc1ccc2c3ccnc(C)c3n(C(C)=O)c2c1	–	> 50	1.27	6.39	> 50
CCCn1c2cc(OC)ccc2c2ccnc(C)c21	–	48.8	9.66	19.4	> 50
COc1ccc2c3ccnc(C)c3n(Cc3ccccc3F)c2c1	–	> 50	5.67	43.6	> 50
COc1ccc2c3ccnc(C)c3n(CCCCCBr)c2c1	–	6.49	4.8	9.34	0.76
CCCCn1c2cc(OC)ccc2c2ccnc(C)c21	–	28.6	6.09	11.3	> 50
COc1ccc2c3ccnc(C)c3n(C(=O)c3ccc(C)cc3)c2c1	–	> 50	1.33	2.88	> 50
COc1ccc2c3ccnc(C)c3n(CCCCCl)c2c1	–	17.9	8.73	7.21	2.94
CCCCCCCCn1c2cc(OC)ccc2c2ccnc(C)c21	–	6.95	4.77	6.68	> 50
COc1ccc2c3ccnc(C)c3n(S(=O)(=O)c3ccccc3)c2c1	–	> 50	0.83	5.95	> 50
